According to patent publication US10550143B2, “C,O-spiro aryl glycoside compounds, preparation therefor and use thereof” (SHANGHAI INSTITUTE OF MATERIA MEDICA, CHINESE ACADEMY OF …, priority 2015, dated 2020):

Experiments:
SD rats [1] = assay: Acute administration of A28 at multiple doses, glucose tolerance of SD rats; assay type: in vivo, rat; conditions: for AUC0-2 h / Average hypoglycemic rate % (0-2 h) / Blood glucose level 15 min / Blood glucose level 30 min / Blood glucose level 60 min / Blood glucose level 90 min / Blood glucose level 120 min / Blood glucose level 0: SD rats OGTT; for Blood glucose level 0: before sugar
Method: (1) 80 SD rats were selected and starved overnight, took water freely, then randomly divided into 10 groups according to body weight and random blood glucose, 8 rats in each group. […] 1 h after oral gavage, 3 g/kg of glucose was orally administered to each group except blank control group, and the blood glucose level was monitored before the sugar administration, and at 15, 30, 60, 90 and 120 minutes after the sugar administration.
Average hypoglycemic rate %=(AUC0-120 min of solvent control group−AUC0-120 min of administration group)/(AUC0-120 min of solvent control group−AUC0-120 min of blank control group)*100%

C57BL/6J mice = assay: Acute administration of A28 at multiple doses, urinary glucose of C57BL/6J mice; assay type: in vivo, mouse; conditions: for Total sugar excretion / Urine concentration / Urine volume: 24 h urine
Method: (§1) (1) 90 normal male C57BL/6J mice were selected and randomly divided into 9 groups according to body weight and blood glucose, 10 in each group. […] After oral gavage, the mice were placed in rats (mice) metabolic cages, after oral gavage, the mice were placed in mice metabolic cages, and urine was collected after 24 h, and the urine volume was recorded, then preserved under −20° C. Rats take food and water freely during the experimental period.
(§2) (2) Index Determination: Glucose levels in urine are measured by the glucose assay kit.

SD rats [2] = assay: Acute administration of A28 at multiple doses, urinary glucose of SD rats; assay type: in vivo, rat; conditions: within 24 h
Method: as §1, with “72” for “90”, “SD rats” for “C57BL/6J mice”, “8” for “10”, “rats” for “mice”, “rats” for “rats (mice) metabolic cages, after oral gavage, the mice were placed in mice”
as §2

CCc1ccc(Cc2cc3c(cc2Cl)CO[C@]32O[C@H](C)[C@@H](O)[C@H](O)[C@H]2O)s1 [Example A28, (1S,3′R,4′S,5′S,6′R)-6′-methyl-6-((5-ethylthienyl)-2-methyl)-5-chloro-3′,4′,5′,6′-tetrahydro-3H-spiro[isobenzofuran-1,2′-pyran]-3′,4′,5′-triol]
AUC0-2 h (SD rats [1]; oral 0.3 mg/kg): 19.1 ± 1.77 mmol·h/L | Average hypoglycemic rate % (0-2 h) (SD rats [1]; oral 0.3 mg/kg): 10.3% | Blood glucose level 15 min (SD rats [1]; oral 0.3 mg/kg): 7.6 ± 0.8 mmol/L | Blood glucose level 30 min (SD rats [1]; oral 0.3 mg/kg): 10.1 ± 1.6 mmol/L | Blood glucose level 60 min (SD rats [1]; oral 0.3 mg/kg): 11.1 ± 1.3 mmol/L | Blood glucose level 90 min (SD rats [1]; oral 0.3 mg/kg): 10.5 ± 0.8 mmol/L | Blood glucose level 120 min (SD rats [1]; oral 0.3 mg/kg): 8.1 ± 1.3 mmol/L | Blood glucose level 0 (SD rats [1]; oral 0.3 mg/kg): 5.0 ± 0.7 mmol/L | AUC0-2 h (SD rats [1]; oral 1 mg/kg): 15.6 ± 0.9 mmol·h/L | Average hypoglycemic rate % (0-2 h) (SD rats [1]; oral 1 mg/kg): 45.0% | Blood glucose level 15 min (SD rats [1]; oral 1 mg/kg): 5.4 ± 0.9 mmol/L | Blood glucose level 30 min (SD rats [1]; oral 1 mg/kg): 6.5 ± 1.1 mmol/L | Blood glucose level 60 min (SD rats [1]; oral 1 mg/kg): 8.4 ± 0.6 mmol/L | Blood glucose level 90 min (SD rats [1]; oral 1 mg/kg): 9.6 ± 1.2 mmol/L | Blood glucose level 120 min (SD rats [1]; oral 1 mg/kg): 9.0 ± 1.3 mmol/L | Blood glucose level 0 (SD rats [1]; oral 1 mg/kg): 4.4 ± 0.3 mmol/L | AUC0-2 h (SD rats [1]; oral 3 mg/kg): 11.6 ± 0.9 mmol·h/L | Average hypoglycemic rate % (0-2 h) (SD rats [1]; oral 3 mg/kg): 83.7% | Blood glucose level 15 min (SD rats [1]; oral 3 mg/kg): 3.6 ± 0.5 mmol/L | Blood glucose level 30 min (SD rats [1]; oral 3 mg/kg): 4.3 ± 0.3 mmol/L | Blood glucose level 60 min (SD rats [1]; oral 3 mg/kg): 5.6 ± 0.7 mmol/L | Blood glucose level 90 min (SD rats [1]; oral 3 mg/kg): 7.4 ± 0.6 mmol/L | Blood glucose level 120 min (SD rats [1]; oral 3 mg/kg): 8.4 ± 1.6 mmol/L | Blood glucose level 0 (SD rats [1]; oral 3 mg/kg): 3.7 ± 0.4 mmol/L | AUC0-2 h (SD rats [1]; oral 10 mg/kg): 7.6 ± 0.9 mmol·h/L | Average hypoglycemic rate % (0-2 h) (SD rats [1]; oral 10 mg/kg): 122.4% | Blood glucose level 15 min (SD rats [1]; oral 10 mg/kg): 3.0 ± 0.4 mmol/L | Blood glucose level 30 min (SD rats [1]; oral 10 mg/kg): 3.4 ± 0.4 mmol/L | Blood glucose level 60 min (SD rats [1]; oral 10 mg/kg): 4.3 ± 1.8 mmol/L | Blood glucose level 90 min (SD rats [1]; oral 10 mg/kg): 4.2 ± 0.4 mmol/L | Blood glucose level 120 min (SD rats [1]; oral 10 mg/kg): 3.7 ± 0.9 mmol/L | Blood glucose level 0 (SD rats [1]; oral 10 mg/kg): 3.1 ± 0.4 mmol/L | 2 h hypoglycemic effect compared with Dapagliflozin (SD rats [1]; SD rats, single oral dose): equivalent 2 h hypoglycemic effect to positive Dapagliflozin | urinary exclusion effect compared with Dapagliflozin (C57BL/6J mice; at the same dose): equal to or stronger than positive control Dapagliflozin | Total sugar excretion (C57BL/6J mice; oral 0.3 mg/kg): 10.31 ± 3.26 mg/100 g | Urine concentration (C57BL/6J mice; oral 0.3 mg/kg): 7.91 ± 2.50 mmol/L | Urine volume (C57BL/6J mice; oral 0.3 mg/kg): 2.1 ± 0.7 mL | Total sugar excretion (C57BL/6J mice; oral 1 mg/kg): 175.49 ± 55.53 mg/100 g | Urine concentration (C57BL/6J mice; oral 1 mg/kg): 133.28 ± 42.18 mmol/L | Urine volume (C57BL/6J mice; oral 1 mg/kg): 1.8 ± 0.6 mL | Total sugar excretion (C57BL/6J mice; oral 3 mg/kg): 440.02 ± 139.25 mg/100 g | Urine concentration (C57BL/6J mice; oral 3 mg/kg): 265.71 ± 84.09 mmol/L | Urine volume (C57BL/6J mice; oral 3 mg/kg): 2.1 ± 0.7 mL | Total sugar excretion (C57BL/6J mice; oral 10 mg/kg): 712.00 ± 225.32 mg/100 g | Urine concentration (C57BL/6J mice; oral 10 mg/kg): 344.07 ± 108.88 mmol/L | Urine volume (C57BL/6J mice; oral 10 mg/kg): 2.5 ± 0.8 mL | effective dose, urine glucose excretion (C57BL/6J mice; single oral, within 24 hours): ≤ 0.3 mg/kg | Total sugar excretion (SD rats [2]; oral 0.3 mg/kg): 10.55 ± 10.05 mg/100 g | Urine concentration (SD rats [2]; oral 0.3 mg/kg): 8.70 ± 1.98 mmol/L | Urine volume (SD rats [2]; oral 0.3 mg/kg): 16.25 ± 1.50 mL | Total sugar excretion (SD rats [2]; oral 1 mg/kg): 149.08 ± 0.00 mg/100 g | Urine concentration (SD rats [2]; oral 1 mg/kg): 105.56 ± 0.00 mmol/L | Urine volume (SD rats [2]; oral 1 mg/kg): 19.25 ± 0.00 mL | Total sugar excretion (SD rats [2]; oral 3 mg/kg): 441.27 ± 50.75 mg/100 g | Urine concentration (SD rats [2]; oral 3 mg/kg): 257.69 ± 32.96 mmol/L | Urine volume (SD rats [2]; oral 3 mg/kg): 25.00 ± 2.06 mL | Total sugar excretion (SD rats [2]; oral 10 mg/kg): 1028.20 ± 83.93 mg/100 g | Urine concentration (SD rats [2]; oral 10 mg/kg): 359.48 ± 29.43 mmol/L | Urine volume (SD rats [2]; oral 10 mg/kg): 39.75 ± 1.57 mL
